Several values for one entry are separate records, joined by “and”; a condition that tells them apart may be missing. Equal entries are not always repeated.
Experiments:
Assay in all cases: biochemical
Design in all cases: endogenous in cells; host or cells: K562 cell extract; species or system K562 (extract); replicate k of n = 2 (each experiment ID is one independent experiment; two experiment IDs per compound)
Conditions in all cases: read-out: KDapp
OXSR1 = OXSR1 (Homo sapiens, UniProt O95747)
OXSR1, sequence (O95747 whole entry): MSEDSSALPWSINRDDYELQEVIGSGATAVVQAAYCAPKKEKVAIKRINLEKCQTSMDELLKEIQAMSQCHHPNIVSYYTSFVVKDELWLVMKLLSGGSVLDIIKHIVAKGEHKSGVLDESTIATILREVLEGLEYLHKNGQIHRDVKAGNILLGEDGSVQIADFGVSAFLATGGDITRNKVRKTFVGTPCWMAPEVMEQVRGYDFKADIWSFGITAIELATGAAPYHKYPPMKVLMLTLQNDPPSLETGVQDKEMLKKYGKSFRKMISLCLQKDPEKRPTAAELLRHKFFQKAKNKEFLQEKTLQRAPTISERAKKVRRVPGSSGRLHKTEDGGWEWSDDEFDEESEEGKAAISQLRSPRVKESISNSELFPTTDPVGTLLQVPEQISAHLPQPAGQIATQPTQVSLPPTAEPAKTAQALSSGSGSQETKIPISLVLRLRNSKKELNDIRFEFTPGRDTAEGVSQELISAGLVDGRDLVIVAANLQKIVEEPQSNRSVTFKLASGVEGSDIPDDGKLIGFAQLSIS

BMP2K = BMP2K (Homo sapiens, UniProt Q9NSY1)
BMP2K, sequence (Q9NSY1 whole entry): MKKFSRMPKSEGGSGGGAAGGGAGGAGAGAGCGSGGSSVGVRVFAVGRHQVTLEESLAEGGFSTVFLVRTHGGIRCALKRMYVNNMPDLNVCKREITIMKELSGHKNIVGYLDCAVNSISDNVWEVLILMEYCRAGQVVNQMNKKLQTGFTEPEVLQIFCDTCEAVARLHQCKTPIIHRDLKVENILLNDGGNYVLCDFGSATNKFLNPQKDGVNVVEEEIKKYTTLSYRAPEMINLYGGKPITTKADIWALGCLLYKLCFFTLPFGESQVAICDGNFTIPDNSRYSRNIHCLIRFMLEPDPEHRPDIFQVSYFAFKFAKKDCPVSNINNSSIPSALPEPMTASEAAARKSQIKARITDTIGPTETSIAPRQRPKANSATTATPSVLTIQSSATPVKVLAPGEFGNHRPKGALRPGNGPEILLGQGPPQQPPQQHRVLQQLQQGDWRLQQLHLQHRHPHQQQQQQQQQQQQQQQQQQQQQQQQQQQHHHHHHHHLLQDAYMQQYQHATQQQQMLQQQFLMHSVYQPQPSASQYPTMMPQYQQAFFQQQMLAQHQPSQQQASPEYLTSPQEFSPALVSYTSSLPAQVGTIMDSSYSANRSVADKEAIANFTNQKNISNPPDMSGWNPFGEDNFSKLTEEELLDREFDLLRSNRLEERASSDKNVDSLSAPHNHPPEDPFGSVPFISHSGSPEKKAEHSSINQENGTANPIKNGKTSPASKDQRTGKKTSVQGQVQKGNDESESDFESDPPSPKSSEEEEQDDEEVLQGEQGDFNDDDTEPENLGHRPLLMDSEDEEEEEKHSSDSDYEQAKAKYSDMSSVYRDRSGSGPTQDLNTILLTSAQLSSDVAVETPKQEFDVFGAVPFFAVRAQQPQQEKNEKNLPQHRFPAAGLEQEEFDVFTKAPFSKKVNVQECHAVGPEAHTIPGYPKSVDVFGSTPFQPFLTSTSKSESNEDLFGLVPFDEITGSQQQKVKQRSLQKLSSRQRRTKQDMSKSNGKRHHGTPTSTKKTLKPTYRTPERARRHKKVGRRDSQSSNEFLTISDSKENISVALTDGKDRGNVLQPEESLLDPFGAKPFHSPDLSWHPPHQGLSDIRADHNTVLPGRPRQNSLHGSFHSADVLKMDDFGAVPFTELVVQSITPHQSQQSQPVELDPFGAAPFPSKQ

ULK1 = molecular target: T1, ULK1 (Homo sapiens, UniProt O75385)
T1 sequence (O75385 1-1050): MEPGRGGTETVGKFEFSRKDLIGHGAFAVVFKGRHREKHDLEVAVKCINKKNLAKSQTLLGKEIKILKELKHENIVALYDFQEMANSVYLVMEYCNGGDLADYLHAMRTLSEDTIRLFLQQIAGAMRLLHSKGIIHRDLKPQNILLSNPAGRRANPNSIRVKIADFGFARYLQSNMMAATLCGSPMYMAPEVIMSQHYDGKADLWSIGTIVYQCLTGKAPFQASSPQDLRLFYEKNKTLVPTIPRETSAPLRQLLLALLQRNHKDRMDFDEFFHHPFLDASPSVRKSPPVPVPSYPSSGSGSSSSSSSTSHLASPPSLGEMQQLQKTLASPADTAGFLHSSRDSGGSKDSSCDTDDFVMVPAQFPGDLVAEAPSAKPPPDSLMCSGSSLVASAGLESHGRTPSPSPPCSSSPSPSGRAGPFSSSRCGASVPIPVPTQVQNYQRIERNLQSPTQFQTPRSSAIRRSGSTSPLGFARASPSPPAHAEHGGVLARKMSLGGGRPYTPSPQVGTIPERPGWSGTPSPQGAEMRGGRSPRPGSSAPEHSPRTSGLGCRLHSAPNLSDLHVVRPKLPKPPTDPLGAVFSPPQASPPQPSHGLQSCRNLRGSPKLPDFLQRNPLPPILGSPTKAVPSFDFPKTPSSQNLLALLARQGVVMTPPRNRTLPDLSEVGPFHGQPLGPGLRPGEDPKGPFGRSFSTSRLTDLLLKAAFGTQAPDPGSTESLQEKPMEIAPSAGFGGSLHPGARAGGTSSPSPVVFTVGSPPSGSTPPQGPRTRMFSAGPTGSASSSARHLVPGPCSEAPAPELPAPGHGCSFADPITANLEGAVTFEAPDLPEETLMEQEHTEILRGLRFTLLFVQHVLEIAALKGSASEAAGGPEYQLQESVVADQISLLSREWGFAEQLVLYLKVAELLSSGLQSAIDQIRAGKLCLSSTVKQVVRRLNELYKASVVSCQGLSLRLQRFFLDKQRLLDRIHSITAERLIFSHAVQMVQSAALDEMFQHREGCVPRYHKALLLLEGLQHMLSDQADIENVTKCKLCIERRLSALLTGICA

MASTL = molecular target: T2, MASTL (Homo sapiens, UniProt Q96GX5)
T2 sequence (Q96GX5 1-879): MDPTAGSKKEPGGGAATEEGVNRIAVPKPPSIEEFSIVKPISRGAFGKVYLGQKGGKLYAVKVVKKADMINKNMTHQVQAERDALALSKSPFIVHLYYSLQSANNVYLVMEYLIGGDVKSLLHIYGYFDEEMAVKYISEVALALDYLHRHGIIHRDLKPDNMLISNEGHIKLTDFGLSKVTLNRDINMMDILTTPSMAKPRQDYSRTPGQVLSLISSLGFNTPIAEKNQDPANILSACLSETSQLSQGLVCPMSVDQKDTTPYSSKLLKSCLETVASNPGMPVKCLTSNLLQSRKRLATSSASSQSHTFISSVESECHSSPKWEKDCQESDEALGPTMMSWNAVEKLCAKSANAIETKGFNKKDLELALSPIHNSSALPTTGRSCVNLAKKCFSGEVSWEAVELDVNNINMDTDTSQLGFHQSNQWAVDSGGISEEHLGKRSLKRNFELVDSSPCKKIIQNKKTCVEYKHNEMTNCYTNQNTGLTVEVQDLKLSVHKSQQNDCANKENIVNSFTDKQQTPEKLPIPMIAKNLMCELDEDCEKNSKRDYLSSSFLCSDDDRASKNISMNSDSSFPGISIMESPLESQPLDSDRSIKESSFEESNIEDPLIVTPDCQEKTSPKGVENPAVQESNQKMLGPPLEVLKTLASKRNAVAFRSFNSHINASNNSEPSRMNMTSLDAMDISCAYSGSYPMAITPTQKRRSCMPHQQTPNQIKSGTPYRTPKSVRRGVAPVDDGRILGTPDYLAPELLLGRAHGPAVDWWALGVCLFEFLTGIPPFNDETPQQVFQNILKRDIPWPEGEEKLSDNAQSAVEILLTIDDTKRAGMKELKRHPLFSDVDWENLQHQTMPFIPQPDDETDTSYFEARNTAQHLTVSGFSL

PRKX = molecular target: T3, PRKX (Homo sapiens, UniProt P51817)
T3 sequence (P51817 1-358): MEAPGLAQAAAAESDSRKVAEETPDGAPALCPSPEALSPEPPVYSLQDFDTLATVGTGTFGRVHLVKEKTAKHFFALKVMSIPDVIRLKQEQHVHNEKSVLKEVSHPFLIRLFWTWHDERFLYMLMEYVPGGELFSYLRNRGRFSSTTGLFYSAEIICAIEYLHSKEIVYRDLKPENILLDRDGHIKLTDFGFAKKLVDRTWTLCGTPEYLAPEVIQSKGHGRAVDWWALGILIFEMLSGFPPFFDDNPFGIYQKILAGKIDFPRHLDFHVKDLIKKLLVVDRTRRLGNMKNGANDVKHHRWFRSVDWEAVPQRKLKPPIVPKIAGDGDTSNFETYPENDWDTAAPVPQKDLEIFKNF

## CN1CCN(c2ccc(Nc3ncc(C#N)c(Nc4ccccc4C(N)=O)n3)cc2)CC1.Cl [TCMDC-134116]
OXSR1
  Kd: 0.073 µM and 0.117 µM
BMP2K
  Kd: 0.112 µM and 0.0928 µM
ULK1
  Kd: 0.095 µM
MASTL
  Kd: 0.274 µM and 0.597 µM
PRKX
  Kd: 1.03 µM
